For this assay, the target named is human GPR40 receptor (Homo sapiens, UniProt O14842). Nature of the assay: IP1 accumulation measurements using the IPOne assay system. The following applies: 1321N1 cells stably expressing human GPR40 receptor; stimulated 1 h at 37° C. The assay is classed as cell-based. The method, then:
IP1 accumulation measurements using the IPOne assay system—1321N1 cells stably expressing human GPR40 receptor (Euroscreen, Belgium) are seeded 24 h before the assay in white 384-well plates in culture medium containing 10% FCS, 1% Na-Pyruvate and 400 μg/mL G418. IP1 is assayed according to the manufacturer's description (Cisbio Bioassays, France). In brief, the assay is started by substitution of the culture medium by stimulation buffer (Hepes 10 mM, CaCl2) 1 mM, MgCl2 0.5 mM, KCl 4.2 mM, NaCl 146 mM, glucose 5.5 mM and LiCl 50 mM, pH 7.4). Cells are stimulated for 1 h at 37° C., 5% CO2 by addition of the compounds that are diluted in stimulation buffer containing LiCl. Assays are stopped by adding HTRF-conjugates (IP1-d2 and Anti-IP1 cryptate Tb) and lysis buffer, provided by the manufacturer. After an incubation time of 1 h at room temperature plates are measured using an EnVision™, Perkin Elmer. The obtained fluorescence ratios at 665/615 […] are then used to calculate the pEC50 values using Assay Explorer 3.3 Software (Accelrys, Inc.) by interpolation using an IP1 reference curve and subsequent sigmoidal curve fitting allowing for a variable hill slope.

A word on the EC50: it is the concentration at which the effect is half-maximal.

Sequence of human GPR40 receptor (O14842 whole entry): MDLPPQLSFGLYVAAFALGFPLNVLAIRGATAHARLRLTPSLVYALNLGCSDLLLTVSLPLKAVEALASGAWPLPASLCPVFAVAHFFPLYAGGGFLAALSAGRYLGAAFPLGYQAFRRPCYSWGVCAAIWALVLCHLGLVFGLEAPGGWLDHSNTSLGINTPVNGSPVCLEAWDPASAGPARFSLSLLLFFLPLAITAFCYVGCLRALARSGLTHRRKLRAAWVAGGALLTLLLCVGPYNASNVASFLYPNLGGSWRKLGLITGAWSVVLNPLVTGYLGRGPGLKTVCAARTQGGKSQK

Take `Cc1cnc(-c2cc(C)c(-c3ccc(F)c(COc4cnc([C@H]5C[C@@H]5C(=O)O)cn4)c3)c(C)c2)nc1` [Example 16, (1 S,2S)-2-{5-[4-Fluoro-2′,6′-dimethyl-4′-(5-methyl-pyrimidin-2-yl)-biphenyl-3-ylmethoxy]-pyrazin-2-yl}-cyclopropanecarboxylic acid]: the EC50 was found to be 3 nM.
As for `Cc1nnc(-c2ccc(-c3cc(COc4cnc([C@H]5C[C@@H]5C(=O)O)cn4)ccc3C(F)(F)F)cc2)o1` [Example 22, (1 S,2S)-2-{5-[4′-(5-Methyl-[1,3,4]oxadiazol-2-yl)-6-trifluoromethyl-biphenyl-3-ylmethoxy]-pyrazin-2-yl}-cyclopropanecarboxylic acid], the response was half-maximal at 4 nM (EC50).
On to `Cc1cc(-c2cnccn2)cc(C)c1-c1cccc(COc2cnc([C@H]3C[C@@H]3C(=O)O)cn2)c1` [Example 10, (1 S,2S)-2-[5-(2′,6′-Dimethyl-4′-pyrazin-2-yl-biphenyl-3-ylmethoxy)-pyrazin-2-yl]-cyclopropanecarboxylic acid], for which a half-maximal response (EC50) required 13 nM.
`O=C(O)[C@H]1C[C@@H]1c1cnc(OCc2cccc(-c3ccccc3C(F)(F)F)c2)cn1` [Example 3, (1 S,2S)-2-[5-(2′-Trifluoromethyl-biphenyl-3-ylmethoxy)-pyrazin-2-yl]-cyclopropanecarboxylic acid] displayed a half-maximal effective concentration (EC50) of 24 nM.
With `Cc1cc(-c2ccnn2C)cc(C)c1-c1cccc(COc2cnc([C@H]3C[C@@H]3C(=O)O)cn2)c1` [Example 11, (1 S,2S)-2-{5-[2′,6′-Dimethyl-4′-(2-methyl-2H-pyrazol-3-yl)-biphenyl-3-ylmethoxy]-pyrazin-2-yl}-cyclopropanecarboxylic acid], a half-maximal effect (EC50) was put at 6 nM.
As to `O=C(O)[C@H]1C[C@@H]1c1cnc(OCc2cc(-c3c(Cl)cccc3Cl)ccc2F)cn1` [Example 15, (1 S,2S)-2-[5-(2′,6′-Dichloro-4-fluoro-biphenyl-3-ylmethoxy)-pyrazin-2-yl]-cyclopropanecarboxylic acid], it took 8 nM to reach a half-maximal effect (EC50).
Molecule `CC(C)(O)CCOc1ccc(-c2cc(COc3cnc([C@H]4C[C@@H]4C(=O)O)cn3)ccc2C(F)(F)F)cc1` [Example 21, (1 S,2S)-2-{5-[4′-(3-Hydroxy-3-methyl-butoxy)-6-trifluoromethyl-biphenyl-3-ylmethoxy]-pyrazin-2-yl}-cyclopropanecarboxylic acid] returned an EC50 of 3 nM.
As for `Cc1cc(O[C@H]2CCOC2)cc(C)c1-c1cccc(COc2cnc([C@H]3C[C@@H]3C(=O)O)cn2)c1` [Example 6, (1 S,2S)-2-(5-{2′,6′-Dimethyl-4′-[(S)-(tetrahydro-furan-3-yl)oxy]-biphenyl-3-ylmethoxy}-pyrazin-2-yl)-cyclopropanecarboxylic acid], the figure is 10 nM; as for `Cc1cc(-c2nnn(C)n2)cc(C)c1-c1cccc(COc2cnc([C@H]3C[C@@H]3C(=O)O)cn2)c1` [Example 2, (1 S,2S)-2-{5-[2′,6′-Dimethyl-4′-(2-methyl-2H-tetrazol-5-yl)-biphenyl-3-ylmethoxy]-pyrazin-2-yl}-cyclopropanecarboxylic acid], 3 nM; as for `Cc1cc(OCCC(C)(C)O)cc(C)c1-c1cccc(COc2cnc([C@H]3C[C@@H]3C(=O)O)cn2)c1` [Example 8, (1 S,2S)-2-{5-[4′-(3-Hydroxy-3-methyl-butoxy)-2′,6′-dimethyl-biphenyl-3-ylmethoxy]-pyrazin-2-yl}-cyclopropanecarboxylic acid], 7 nM.
`Cc1cc(OCC2CCOCC2)cc(C)c1-c1ccc(F)c(COc2cnc([C@H]3C[C@@H]3C(=O)O)cn2)c1` [Example 19, (1 S,2S)-2-{5-[4-Fluoro-2′,6′-dimethyl-4′-(tetrahydro-pyran-4-ylmethoxy)-biphenyl-3-ylmethoxy]-pyrazin-2-yl}-cyclopropanecarboxylic acid]: the EC50 is 6 nM.
Molecule `Cc1cc(OCCC(C)(C)O)cc(C)c1-c1cc(COc2cnc([C@H]3C[C@@H]3C(=O)O)cn2)c(F)cc1F` [Example 1, (1 S,2S)-2-{5-[4,6-Difluoro-4′-(3-hydroxy-3-methyl-butoxy)-2′,6′-dimethyl-biphenyl-3-ylmethoxy]-pyrazin-2-yl}-cyclopropanecarboxylic acid] gave a 50% effective concentration (EC50) of 6 nM.
The molecule `Cc1cc(OCC2CCCO2)cc(C)c1-c1ccc(F)c(COc2cnc([C@H]3C[C@@H]3C(=O)O)cn2)c1` (stereo partly drawn) [Example 14, (1 S,2S)-2-{5-[4-Fluoro-2′,6′-dimethyl-4′-(tetrahydro-furan-2-ylmethoxy)-biphenyl-3-ylmethoxy]-pyrazin-2-yl}-cyclopropanecarboxylic acid] returned an EC50 of 6 nM.
The molecule `COc1cc(-c2cc(C)c(-c3ccc(F)c(COc4cnc([C@H]5C[C@@H]5C(=O)O)cn4)c3)c(C)c2)ccn1` [Example 17, (1 S,2S)-2-{5-[4-Fluoro-4′-(2-methoxy-pyridin-4-yl)-2′,6′-dimethyl-biphenyl-3-ylmethoxy]-pyrazin-2-yl}-cyclopropanecarboxylic acid] gave an EC50 of 7 nM.
Turning to `Cc1cc(OC2CCOCC2)cc(C)c1-c1cccc(COc2cnc([C@H]3C[C@@H]3C(=O)O)cn2)c1` [Example 7, (1 S,2S)-2-{5-[2′,6′-Dimethyl-4′-(tetrahydro-pyran-4-yloxy)-biphenyl-3-ylmethoxy]-pyrazin-2-yl}-cyclopropanecarboxylic acid], a half-maximal effect (EC50) was put at 8 nM.
With `Cc1cc(-c2nnn(CC(C)(C)O)n2)cc(C)c1-c1cccc(COc2cnc([C@H]3C[C@@H]3C(=O)O)cn2)c1` [Example 12, (1 S,2S)-2-(5-{4′-[2-(2-Hydroxy-2-methyl-propyl)-2H-tetrazol-5-yl]-2′,6′-dimethyl-biphenyl-3-ylmethoxy}-pyrazin-2-yl)-cyclopropanecarboxylic acid] the figure was 8 nM.
In turn, `COc1cc(C)c(-c2cccc(COc3cnc([C@H]4C[C@@H]4C(=O)O)cn3)c2)c(C)c1` [Example 4, (1 S,2S)-2-[5-(4′-Methoxy-2′,6′-dimethyl-biphenyl-3-ylmethoxy)-pyrazin-2-yl]-cyclopropanecarboxylic acid] came in with an EC50 of 12 nM.
With `CC(C)c1ccccc1-c1ccc(F)c(COc2cnc([C@H]3C[C@@H]3C(=O)O)cn2)c1` [Example 20, (1 S,2S)-2-[5-(4-Fluoro-2′-isopropyl-biphenyl-3-ylmethoxy)-pyrazin-2-yl]-cyclopropanecarboxylic acid], the EC50 stood at 35 nM.
With `Cc1cc(-c2ccc(=O)n(C)c2)cc(C)c1-c1cccc(COc2cnc([C@H]3C[C@@H]3C(=O)O)cn2)c1` [Example 9, (1 S,2S)-2-{5-[2′,6′-Dimethyl-4′-(1-methyl-6-oxo-1,6-dihydro-pyridin-3-yl)-biphenyl-3-ylmethoxy]-pyrazin-2-yl}-cyclopropanecarboxylic acid] the figure was 9 nM.
In the case of `CCc1cccc(CC)c1-c1cccc(COc2cnc([C@H]3C[C@@H]3C(=O)O)cn2)c1` [Example 13, (1 S,2S)-2-[5-(2′,6′-Diethyl-biphenyl-3-ylmethoxy)-pyrazin-2-yl]-cyclopropane-carboxylic acid], the half-maximal effective concentration (EC50) came out at 20 nM.
The molecule `O=C(O)[C@H]1C[C@@H]1c1cnc(OCc2cccc(-c3ccc(-c4cnco4)cc3)c2)cn1` [Example 5, (1 S,2S)-2-[5-(4′-Oxazol-5-yl-biphenyl-3-ylmethoxy)-pyrazin-2-yl]-cyclopropane-carboxylic acid] came in with an EC50 of 67 nM.
In turn, `Cc1cc(OCCCS(C)(=O)=O)cc(C)c1-c1ccc(F)c(COc2cnc([C@H]3C[C@@H]3C(=O)O)cn2)c1` [Example 18, (1 S,2S)-2-{5-[4-Fluoro-4′-(3-methanesulfonyl-propoxy)-2′,6′-dimethyl-biphenyl-3-ylmethoxy]-pyrazin-2-yl}-cyclopropanecarboxylic acid] had a 50% effective concentration (EC50) of 7 nM.

The record behind these values is US20190381037A1, “Benzylaminopyridylcyclopropanecarboxylic acids, pharmaceutical compositions and uses thereof” (Boehringer Ingelheim International GmbH, priority 2017, published 2019).
